Drawing on ChEMBL document CHEMBL1147764, “Leptostatin: a synthetic hybrid of the cytotoxic polyketides callystatin A and leptomycin B” (Bioorg Med Chem Lett, 2006), this text covers IC50 for five molecules.

The assay relates to HCT-116. In words: Cytotoxicity against HCT116 human colon cancer cell line. Type of assay: functional, cell-based.
The IC50 is the midpoint of a concentration-inhibition curve. Read a low IC50 as greater potency. `CCC(=C/[C@H](C)C/C=C/C(C)=C/[C@@H](C)C(=O)[C@@H](C)[C@H](O)[C@@H](C)CC)/C=C/[C@H]1OC(=O)C=C[C@H]1C` showed a concentration for half-maximal inhibition (IC50) of 0.2 nM.

`CCC(=C/[C@H](C)C/C=C/C(C)=C/[C@@H](C)C(=O)[C@@H](C)[C@H](O)[C@@H](C)CC)/C=C/[C@H]1OC(=O)C=C[C@@H]1C`: the midpoint of inhibition, the IC50, lay at 2 nM. `CCC(=C/[C@H](C)C/C=C/C(C)=C/[C@@H](C)C(=O)[C@@H](C)[C@H](O)[C@@H](C)CC)/C=C/[C@@H]1OC(=O)C=C[C@@H]1C` came in with a half-inhibitory concentration (IC50) of 3 nM.

The molecule `CCC(=C/[C@H](C)C/C=C/C(C)=C/[C@@H](C)C(=O)[C@@H](C)[C@H](O)[C@@H](C)CC)/C=C/[C@@H]1OC(=O)C=C[C@H]1C` showed an IC50 of 30 nM. As for `CCC(=C/[C@H](C)C/C=C/C(C)=C/[C@@H](C)C(=O)[C@@H](C)[C@H](O)[C@@H](C)CC)/C=C/[C@H]1CC=CC(=O)O1` [CALLYSTATIN A], 0.03 nM corresponded to half-maximal inhibition (IC50).
